± gives the standard deviation of the averaged measurements or the uncertainty stated by the source.
Key:
[1] = test system: Caenorhabditis elegans N2; assay: Kaplan-Meier median lifespan of treated cohort (days); higher = longer lifespan; conditions: exposure: chronic from day 1 of adulthood, single dose per compound (concentration not stated in sheet)
Procedure: (§1)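 Caenorhabditis lifespan assay (CITP). Synchronised hermaphrodites were moved on the first day of adulthood onto 35 mm NGM plates with live E. coli OP50-1 and 51 uM FUdR, with the compound spread on the plate. Worms were kept at 20 C and scored for survival.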

[2] = test system: Caenorhabditis briggsae HK104; assay: as above; conditions: exposure: chronic from day 1 of adulthood, single dose per compound (concentration not stated in sheet)
Procedure: as §1

[3] = test system: Caenorhabditis briggsae AF16; assay: as above; conditions: exposure: chronic from day 1 of adulthood, single dose per compound (concentration not stated in sheet)
Procedure: as §1

[4] = test system: Caenorhabditis elegans MY16; assay: as above; conditions: exposure: chronic from day 1 of adulthood, single dose per compound (concentration not stated in sheet)
Procedure: as §1

[5] = test system: Caenorhabditis elegans JU775; assay: as above; conditions: exposure: chronic from day 1 of adulthood, single dose per compound (concentration not stated in sheet)
Procedure: as §1

[6] = test system: Caenorhabditis briggsae JU1348; assay: as above; conditions: exposure: chronic from day 1 of adulthood, single dose per compound (concentration not stated in sheet)
Procedure: as §1

[7] = test system: Caenorhabditis briggsae HK104; assay: Kaplan-Meier median lifespan of treated plate (days); higher = longer lifespan; conditions: exposure: chronic from day 1 of adulthood
Procedure: (§2)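 Dose-response lifespan assays in three C. briggsae strains (AF16, HK104, JU1348), run per plate (35-40 animals) on NGM with live OP50-1 and 51 uM FUdR at 20 C. Compound was added to the plate surface and worms were exposed from the first day of adulthood.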

[8] = test system: Caenorhabditis briggsae AF16; assay: as above; conditions: exposure: chronic from day 1 of adulthood
Procedure: as §2

[9] = test system: Caenorhabditis briggsae JU1348; assay: as above; conditions: exposure: chronic from day 1 of adulthood
Procedure: as §2

[10] = test system: Caenorhabditis elegans N2; assay: mean adult lifespan of treated cohort (days); higher = longer lifespan; conditions: exposure: chronic from day 1 of adulthood, single dose per compound (concentration not stated in sheet)
Procedure: as §1

[11] = test system: Caenorhabditis briggsae HK104; assay: as above; conditions: exposure: chronic from day 1 of adulthood, single dose per compound (concentration not stated in sheet)
Procedure: as §1

[12] = test system: Caenorhabditis briggsae AF16; assay: as above; conditions: exposure: chronic from day 1 of adulthood, single dose per compound (concentration not stated in sheet)
Procedure: as §1

[13] = test system: Caenorhabditis elegans MY16; assay: as above; conditions: exposure: chronic from day 1 of adulthood, single dose per compound (concentration not stated in sheet)
Procedure: as §1

[14] = test system: Caenorhabditis elegans JU775; assay: as above; conditions: exposure: chronic from day 1 of adulthood, single dose per compound (concentration not stated in sheet)
Procedure: as §1

[15] = test system: Caenorhabditis briggsae JU1348; assay: as above; conditions: exposure: chronic from day 1 of adulthood, single dose per compound (concentration not stated in sheet)
Procedure: as §1

[16] = test system: Caenorhabditis briggsae HK104; assay: mean adult lifespan of treated plate (days); higher = longer lifespan; conditions: exposure: chronic from day 1 of adulthood
Procedure: as §2

[17] = test system: Caenorhabditis briggsae AF16; assay: as above; conditions: exposure: chronic from day 1 of adulthood
Procedure: as §2

[18] = test system: Caenorhabditis briggsae JU1348; assay: as above; conditions: exposure: chronic from day 1 of adulthood
Procedure: as §2

CCCOC(=O)c1cc(O)c(O)c(O)c1 [propyl gallate]
Kaplan-Meier median lifespan [1]: 18.3 ± 0.82 | Kaplan-Meier median lifespan [2]: 35.5 ± 3 | Kaplan-Meier median lifespan [3]: 24.7 ± 2 | Kaplan-Meier median lifespan [4]: 18.3 ± 3.9 | Kaplan-Meier median lifespan [5]: 22.3 ± 2 | Kaplan-Meier median lifespan [6]: 24.7 ± 4 | Kaplan-Meier median lifespan ([7]; 20 µM): 35.4 ± 5.3 | Kaplan-Meier median lifespan ([7]; 100 µM): 36.8 ± 3.5 | Kaplan-Meier median lifespan ([7]; 200 µM): 35 | Kaplan-Meier median lifespan ([7]; 400 µM): 35.5 ± 3.6 | Kaplan-Meier median lifespan ([7]; 4000 µM): 22.2 ± 6.4 | Kaplan-Meier median lifespan ([8]; 20 µM): 26.4 ± 2.5 | Kaplan-Meier median lifespan ([8]; 100 µM): 26.6 ± 2.9 | Kaplan-Meier median lifespan ([8]; 200 µM): 28.3 ± 0.58 | Kaplan-Meier median lifespan ([8]; 400 µM): 26.6 ± 2.4 | Kaplan-Meier median lifespan ([8]; 4000 µM): 17.6 ± 4.5 | Kaplan-Meier median lifespan ([9]; 20 µM): 24.6 ± 4.2 | Kaplan-Meier median lifespan ([9]; 100 µM): 27.3 ± 4.3 | Kaplan-Meier median lifespan ([9]; 200 µM): 21 | Kaplan-Meier median lifespan ([9]; 400 µM): 24.1 ± 4.8 | Kaplan-Meier median lifespan ([9]; 4000 µM): 19.4 ± 2.1 | mean adult lifespan of treated cohort [10]: 19 ± 0.4 | mean adult lifespan of treated cohort [11]: 33.4 ± 1 | mean adult lifespan of treated cohort [12]: 24.8 ± 0.89 | mean adult lifespan of treated cohort [13]: 18.3 ± 0.57 | mean adult lifespan of treated cohort [14]: 21.5 ± 0.74 | mean adult lifespan of treated cohort [15]: 24.5 ± 0.75 | mean adult lifespan of treated plate ([16]; 20 µM): 33.5 ± 1.6 | mean adult lifespan of treated plate ([16]; 100 µM): 35 ± 1.6 | mean adult lifespan of treated plate ([16]; 200 µM): 33.9 ± 1.3 | mean adult lifespan of treated plate ([16]; 400 µM): 35.1 ± 1.4 | mean adult lifespan of treated plate ([16]; 4000 µM): 21.9 ± 1.4 | mean adult lifespan of treated plate ([17]; 20 µM): 26.6 ± 1.5 | mean adult lifespan of treated plate ([17]; 100 µM): 25 ± 1.5 | mean adult lifespan of treated plate ([17]; 200 µM): 27.2 ± 1.1 | mean adult lifespan of treated plate ([17]; 400 µM): 25.2 ± 1.4 | mean adult lifespan of treated plate ([17]; 4000 µM): 18 ± 1.1 | mean adult lifespan of treated plate ([18]; 20 µM): 23.8 ± 1.1 | mean adult lifespan of treated plate ([18]; 100 µM): 26 ± 1.4 | mean adult lifespan of treated plate ([18]; 200 µM): 22.8 ± 1.1 | mean adult lifespan of treated plate ([18]; 400 µM): 24.7 ± 1.2 | mean adult lifespan of treated plate ([18]; 4000 µM): 19.5 ± 0.94

Oc1ccc(/C=C/c2cc(O)cc(O)c2)cc1 [resveratrol]
Kaplan-Meier median lifespan [1]: 19.2 ± 1.2 | Kaplan-Meier median lifespan [2]: 35.8 ± 3.4 | Kaplan-Meier median lifespan [3]: 24.2 ± 1.5 | Kaplan-Meier median lifespan [4]: 18.3 ± 1.5 | Kaplan-Meier median lifespan [5]: 24.2 ± 1.7 | Kaplan-Meier median lifespan [6]: 25.5 ± 1.6 | Kaplan-Meier median lifespan ([7]; 10 µM): 36.8 ± 3.5 | Kaplan-Meier median lifespan ([7]; 50 µM): 36.2 ± 3.3 | Kaplan-Meier median lifespan ([7]; 200 µM): 36.9 ± 3 | Kaplan-Meier median lifespan ([7]; 1000 µM): 35.6 ± 3.6 | Kaplan-Meier median lifespan ([8]; 10 µM): 26.1 ± 1.4 | Kaplan-Meier median lifespan ([8]; 50 µM): 27.8 ± 2.7 | Kaplan-Meier median lifespan ([8]; 200 µM): 26.3 ± 1.8 | Kaplan-Meier median lifespan ([8]; 1000 µM): 28.1 ± 2.2 | Kaplan-Meier median lifespan ([9]; 10 µM): 25.7 ± 4.7 | Kaplan-Meier median lifespan ([9]; 50 µM): 25.7 ± 4.7 | Kaplan-Meier median lifespan ([9]; 200 µM): 23.2 ± 3.4 | Kaplan-Meier median lifespan ([9]; 1000 µM): 22.6 ± 2.6 | mean adult lifespan of treated cohort [10]: 19.2 ± 0.46 | mean adult lifespan of treated cohort [11]: 33.5 ± 1 | mean adult lifespan of treated cohort [12]: 24.6 ± 0.91 | mean adult lifespan of treated cohort [13]: 18.3 ± 0.59 | mean adult lifespan of treated cohort [14]: 22.9 ± 0.69 | mean adult lifespan of treated cohort [15]: 25.5 ± 0.79 | mean adult lifespan of treated plate ([16]; 10 µM): 35.9 ± 1.3 | mean adult lifespan of treated plate ([16]; 50 µM): 33 ± 1.3 | mean adult lifespan of treated plate ([16]; 200 µM): 35.5 ± 1.5 | mean adult lifespan of treated plate ([16]; 1000 µM): 34.7 ± 1.3 | mean adult lifespan of treated plate ([17]; 10 µM): 26.1 ± 1.4 | mean adult lifespan of treated plate ([17]; 50 µM): 26.9 ± 1.2 | mean adult lifespan of treated plate ([17]; 200 µM): 26.9 ± 1.6 | mean adult lifespan of treated plate ([17]; 1000 µM): 27.6 ± 1.3 | mean adult lifespan of treated plate ([18]; 10 µM): 25.9 ± 1.5 | mean adult lifespan of treated plate ([18]; 50 µM): 25.7 ± 1.1 | mean adult lifespan of treated plate ([18]; 200 µM): 22.9 ± 1.1 | mean adult lifespan of treated plate ([18]; 1000 µM): 23.6 ± 1
